Reference: patent US8574563B2 (Bristol-Myers Squibb Company, priority 2006, dated 2013)

test system: HCV 1b-377-neo replicon cells; experiment: HCV replicon assay, HCV 1b-377-neo replicon cells (1b FRET); assay type: cell-based, Hepatitis C virus genotype 1b; conditions: HCV 1b-377-neo replicon cells; HCV 1b genotype
In short: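 Compounds were tested in genotype 1b subgenomic replicon cells carrying a neomycin marker, alongside a matched replicon line with an NS5A Y2065H substitution that confers resistance to a reference NS5A inhibitor.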

Compound	EC50 range against HCV 1b (Table 2, Range)
CN(C)[C@@H](C(=O)N1CCC[C@H]1c1ncc(-c2ccc(-c3ccc(-c4cnc([C@@H]5CCCN5C(=O)CNC(=O)c5ccccc5)[nH]4)cc3)cc2)[nH]1)c1ccccc1 [Example 94-6, N-(2-((2S)-2-(5-(4′-(2-((2S)-1-((2R)-2-(dimethylamino)-2-phenylacetyl)-2-pyrrolidinyl)-1H-imidazol-5-yl)-4-biphenylyl)-1H-imidazol-2-yl)-1-pyrrolidinyl)-2-oxoethyl)benzamide]	C-D

same assay, conditions: HCV 1b-377-neo replicon cells; HCV 1b genotype; read-out: EC50 range against HCV 1b (Table 2, Range)

Compound	EC50 [nM]
COC(=O)N[C@@H](C(=O)N1CCC[C@H]1c1ncc(-c2ccc(-c3ccc(-c4cnc([C@@H]5CCCN5C(=O)[C@@H]5CCCN5C)[nH]4)cc3)cc2)[nH]1)c1ccccc1 [Example 52, methyl ((1R)-2-((2S)-2-(5-(4′-(2-((2S)-1-(1-methyl-L-propyl)-2-pyrrolidinyl)-1H-imidazol-5-yl)-4-biphenylyl)-1H-imidazol-2-yl)-1-pyrrolidinyl)-2-oxo-1-phenylethyl)carbamate]	0.001 to 0.999
methyl (2-((2S)-2-(5-(4′-(2-((2S)-1-((2R)-2- (dimethylamino)-2-phenylacetyl)-2- pyrrolidinyl)-1H-imidazol-5-yl)-4-biphenylyl)- 1H-imidazol-2-yl)-1-pyrrolidinyl)-2- oxoethyl)carbamate [Example 91]	0.001 to 0.999

same assay, conditions: Hepatitis C virus, HCV 1b-377-neo replicon cells; HCV 1b genotype; read-out: EC50 range against HCV 1b (Table 2, Range)

Compound	EC50 [nM]
COC(=O)N[C@@H](C)C(=O)N1CCC[C@H]1c1ncc(-c2ccc(-c3ccc(-c4cnc([C@@H]5CCCN5C(=O)[C@H](Cc5c[nH]nn5)NC(=O)OC)[nH]4)cc3)cc2)[nH]1 [cj-33, methyl ((1S)-2-((2S)-2-(5-(4′-(2-((2S)-1-(N-(methoxycarbonyl)-L-alanyl)-2-pyrrolidinyl)-1H-imidazol-5-yl)-4-biphenylyl)-1H-imidazol-2-yl)-1-pyrrolidinyl)-2-oxo-1-(1H-1,2,3-triazol-4-ylmethyl)ethyl)carbamate]	0.001 to 0.999
COC(=O)N[C@@H](C(=O)N1[C@@H]2C[C@@H]2C[C@H]1c1nc(-c2ccc(-c3ccc(-c4c[nH]c([C@@H]5C[C@H]6C[C@H]6N5C(=O)[C@H](NC(=O)OC)c5ccccc5)n4)cc3)cc2)c[nH]1)c1ccccc1 [Example M137, dimethyl (4,4′-biphenyl-diylbis(1H-imidazole-4,2-diyl(1R,3S,5R)-2-azabicyclo[3.1.0]hexane-3,2-diyl((1R)-2-oxo-1-phenyl-2,1-ethanediyl)))biscarbamate]	0.001 to 0.999
CCN(CC)[C@@H](C(=O)N1CCC[C@H]1c1ncc(-c2ccc(-c3ccc(-c4cnc([C@@H]5CCCN5C(=O)C[C@@H](NC(=O)OC)C(C)C)[nH]4)cc3)cc2)[nH]1)c1ccccc1 [cj-52, methyl ((1R)-3-((2S)-2-(5-(4′-(2-((2S)-1-((2R)-2-(diethylamino)-2-phenylacetyl)-2-pyrrolidinyl)-1H-imidazol-5-yl)-4-biphenylyl)-1H-imidazol-2-yl)-1-pyrrolidinyl)-1-isopropyl-3-oxopropyl)carbamate]	0.001 to 0.999
COC(=O)N[C@@H](C(=O)N1CCC[C@H]1c1ncc(-c2ccc(-c3ccc(-c4cnc([C@@H]5CCCN5C(=O)Cc5ccccc5CN5CCOCC5)[nH]4)cc3)cc2)[nH]1)c1ccccc1 [Example 84-84, methyl ((1R)-2-((2S)-2-(5-(4′-(2-((2S)-1-((2-(4-morpholinylmethyl)phenyl)acetyl)-2-pyrrolidinyl)-1H-imidazol-5-yl)-4-biphenylyl)-1H-imidazol-2-yl)-1-pyrrolidinyl)-2-oxo-1-phenylethyl)carbamate]	0.001 to 0.999
COC(=O)N[C@@H](CC(=O)OCc1ccccc1)C(=O)N1CCC[C@H]1c1ncc(-c2ccc(-c3ccc(-c4cnc([C@@H]5CCCN5C(=O)[C@@H](NC(=O)OC)C(C)C)[nH]4)cc3)cc2)[nH]1 [Example M109, benzyl (3S)-3-((methoxycarbonyl)amino)-4-((2S)-2-(5-(4′-(2-((2S)-1-(N-(methoxycarbonyl)-L-valyl)-2-pyrrolidinyl)-1H-imidazol-5-yl)-4-biphenylyl)-1H-imidazol-2-yl)-1-pyrrolidinyl)-4-oxobutanoate]	1 to 99
COC(=O)N[C@H](C(=O)N1CCC[C@H]1c1ncc(-c2ccc(-c3ccc(-c4cnc([C@@H]5CCCN5C(=O)[C@@H](Nc5cncnc5)C(C)C)[nH]4)cc3)cc2)[nH]1)C(C)C [cj-20d, methyl ((1S)-2-methyl-1-(((2S)-2-(5-(4′-(2-((2S)-1-(N-5-pyrimidinyl-L-valyl)-2-pyrrolidinyl)-1H-imidazol-5-yl)-4-biphenylyl)-1H-imidazol-2-yl)-1-pyrrolidinyl)carbonyl)propyl)carbamate]	0.001 to 0.999
CCN(CC)[C@@H](C(=O)N1CCC[C@H]1c1ncc(-c2ccc(-c3ccc(-c4cnc([C@@H]5CCCN5C(=O)[C@@H](NC(=O)OC)C(C)C)[nH]4)cc3)cc2)[nH]1)C(C)C [Example M79, methyl ((1S)-1-(((2S)-2-(5-(4′-(2-((2S)-1-(N,N-diethyl-D-valyl)-2-pyrrolidinyl)-1H-imidazol-5-yl)-4-biphenylyl)-1H-imidazol-2-yl)-1-pyrrolidinyl)carbonyl)-2-methylpropyl)carbamate]	1 to 99
COC(=O)N[C@@H](C)C(=O)N1CCC[C@H]1c1ncc(-c2ccc(-c3ccc(-c4cnc([C@@H]5CCCN5C(=O)[C@@H](Nc5ncccn5)C(C)C)[nH]4)cc3)cc2)[nH]1 [cj-11a, methyl ((1S)-1-methyl-2-oxo-2-((2S)-2-(5-(4′-(2-((2S)-1-(N-2-pyrimidinyl-L-valyl)-2-pyrrolidinyl)-1H-imidazol-5-yl)-4-biphenylyl)-1H-imidazol-2-yl)-1-pyrrolidinyl)ethyl)carbamate]	0.001 to 0.999
CN(C)[C@@H](C(=O)N1CCC[C@H]1c1ncc(-c2ccc(-c3ccc(-c4cnc([C@@H]5CCCN5C(=O)Cc5cn(C)cn5)[nH]4)cc3)cc2)[nH]1)c1ccccc1 [Example 88, (1R)-N,N-dimethyl-2-((2S)-2-(5-(4′-(2-((2S)-1-((1-methyl-1H-imidazol-4-yl)acetyl)-2-pyrrolidinyl)-1H-imidazol-5-yl)-4-biphenylyl)-1H-imidazol-2-yl)-1-pyrrolidinyl)-2-oxo-1-phenylethanamine]	0.001 to 0.999
CCCc1[nH]c([C@@H]2CCCN2C(=O)[C@@H](c2ccccc2)N(CC)CC)nc1-c1ccc(-c2ccc(-c3cnc([C@@H]4CCCN4C(=O)[C@@H](c4ccccc4)N(CC)CC)[nH]3)cc2)cc1 [Example J14c.1, (1R)-2-((2S)-2-(4-(4′-(2-((2S)-1-((2R)-2-(diethylamino)-2-phenylacetyl)-2-pyrrolidinyl)-1H-imidazol-4-yl)-4-biphenylyl)-5-propyl-1H-imidazol-2-yl)-1-pyrrolidinyl)-N,N-diethyl-2-oxo-1-phenylethanamine]	0.001 to 0.999
COC(=O)N[C@H](C(=O)N1CCC[C@@H]1c1ncc(-c2ccc(-c3ccc(-c4cnc([C@H]5CCCN5C(=O)[C@@H](NC(=O)OC)C(C)C)[nH]4)cc3)cc2)[nH]1)C(C)C [Example M28, methyl ((1S)-1-(((2R)-2-(5-(4′-(2-((2R)-1-((2S)-2-((methoxycarbonyl)amino)-3-methylbutanoyl)-2-pyrrolidinyl)-1H-imidazol-5-yl)-4-biphenylyl)-1H-imidazol-2-yl)-1-pyrrolidinyl)carbonyl)-2-methylpropyl)carbamate]	1000 to 10000
COC(=O)N[C@@H](C(=O)N1CCC[C@H]1c1ncc(-c2ccc(-c3ccc(-c4cnc([C@@H]5CCCN5C(=O)Cc5csc(C)n5)[nH]4)cc3)cc2)[nH]1)c1ccccc1 [Example 84-72, methyl ((1R)-2-((2S)-2-(5-(4′-(2-((2S)-1-((2-methyl-1,3-thiazol-4-yl)acetyl)-2-pyrrolidinyl)-1H-imidazol-5-yl)-4-biphenylyl)-1H-imidazol-2-yl)-1-pyrrolidinyl)-2-oxo-1-phenylethyl)carbamate]	1 to 99
COC(=O)N[C@@H](C)C(=O)N1CCC[C@H]1c1ncc(-c2ccc(-c3ccc(-c4cnc([C@@H]5CCCN5C(=O)c5ncco5)[nH]4)cc3)cc2)[nH]1 [Example M92, methyl ((1S)-1-methyl-2-((S)-2-(5-(4′-(2-((2S)-1-(1,3-oxazol-2-ylcarbonyl)-2-pyrrolidinyl)-1H-imidazol-5-yl)-4-biphenylyl)-1H-imidazol-2-yl)-1-pyrrolidinyl)-2-oxoethyl)carbamate]	1000 to 10000
COC(=O)N[C@@H](C(=O)N1CCC[C@H]1c1ncc(-c2ccc(-c3ccc(-c4cnc([C@@H]5CCCN5C(=O)CC5CCCCC5)[nH]4)cc3)cc2)[nH]1)c1ccccc1 [Example 84-75, methyl ((1R)-2-((2S)-2-(5-(4′-(2-((2S)-1-(cyclohexylacetyl)-2-pyrrolidinyl)-1H-imidazol-5-yl)-4-biphenylyl)-1H-imidazol-2-yl)-1-pyrrolidinyl)-2-oxo-1-phenylethyl)carbamate]	1 to 99
COC(=O)N[C@@H](Cc1ccccc1)C(=O)N1CCC[C@H]1c1ncc(-c2ccc(-c3ccc(-c4cnc([C@@H]5CCCN5C(=O)[C@H](Cc5ccccc5)NC(=O)OC)[nH]4)cc3)cc2)[nH]1 [cj-148, methyl ((1S)-1-benzyl-2-((2S)-2-(5-(4′-(2-((2S)-1-((2S)-2-((methoxycarbonyl)amino)-3-phenylpropanoyl)-2-pyrrolidinyl)-1H-imidazol-5-yl)-4-biphenylyl)-1H-imidazol-2-yl)-1-pyrrolidinyl)-2-oxoethyl)carbamate]	1 to 99
CCN(CC)[C@@H](C(=O)N1CCC[C@H]1c1ncc(-c2ccc(-c3ccc(-c4cnc([C@@H]5CCCN5C(=O)[C@@H](NC5=NCCN5)C(C)C)[nH]4)cc3)cc2)[nH]1)c1ccccc1 [cj-11g, N-((1S)-1-(((2S)-2-(5-(4′-(2-((2S)-1-((2R)-2-(diethylamino)-2-phenylacetyl)-2-pyrrolidinyl)-1H-imidazol-5-yl)-4-biphenylyl)-1H-imidazol-2-yl)-1-pyrrolidinyl)carbonyl)-2-methylpropyl)-4,5-dihydro-1H-imidazol-2-amine]	1 to 99
